In patent US20210122739A1, “NOVEL SULFONAMIDE CARBOXAMIDE COMPOUNDS” (Inflazome Limited, priority 2017, published 2021):

The molecules below were run against NLRP3 (Homo sapiens, UniProt Q96P20) (assay: THP-1 cells pyroptosis assay). Conditions: 1.0 μg/ml LPS, nigericin 5 μM, resazurin readout.
Type: cell-based
Design: Seed THP-1 cells (25,000 cells/well) containing 1.0 μg/ml LPS; host or cells: THP-1 cells, LPS-primed, nigericin-stimulated
Excerpt: It is well established that the activation of NLRP3 leads to cell pyroptosis and this feature plays an important part in the manifestation of clinical disease (Yan-gang Liu et al., Cell Death & Disease, 2017, 8(2), e2579; Alexander Wree et al., Hepatology, 2014, 59(3), 898-910; Alex Baldwin et al., Journal of Medicinal Chemistry, 2016, 59(5), 1691-1710; Ema Ozaki et al., Journal of Inflammation Research, 2015, 8, 15-27; Zhen Xie & Gang Zhao, Neuroimmunology Neuroinflammation, 2014, 1(2), 60-65; Mattia Cocco et al., Journal of Medicinal Chemistry, 2014, 57(24), 10366-10382; T. Satoh et al., Cell Death & Disease, 2013, 4, e644). Therefore, it is anticipated that inhibitors of NLRP3 will block pyroptosis, as well as the release of pro-inflammatory cytokines (e.g. IL-1β) from the cell.
THP-1 cells (ATCC #TIB-202) were grown in RPMI containing L-glutamine (Gibco #11835) supplemented with 1 mM sodium pyruvate (Sigma #S8636) and penicillin (100 units/ml)/streptomycin (0.1 mg/ml) (Sigma #P4333) in 10% Fetal Bovine Serum (FBS) (Sigma #F0804). The cells were routinely passaged and grown to confluency (˜10^6 cells/ml). On the day of the experiment, THP-1 cells were harvested and resuspended into RPMI medium (without FBS). The cells were then counted and viability (>90%) checked by Trypan blue (Sigma #T8154). Appropriate dilutions were made to give a concentration of 625,000 cells/ml. To this diluted cell solution was added LPS (Sigma #L4524) to give a 1 μg/ml Final Assay Concentration (FAC). 40 μl of the final preparation was aliquoted into each well of a 96-well plate. The plate thus prepared was used for compound screening.
The following method step-by-step assay was followed for compound screening. • 1. Seed THP-1 cells (25,000 cells/well) containing 1.0 μg/ml LPS in 40 μl of RPMI medium (without FBS) in 96-well, black walled, clear bottom cell culture plates coated with poly-D-lysine (VWR #734-0317) • 2. Add […] compound (8 points half-log dilution, with 10 μM top dose) or vehicle (DMSO 0.1% FAC) to the appropriate wells • 3. Incubate for 3 hrs at 37° C. in 5% CO2 • 4. Add 5 μl nigericin (Sigma #N7143) (FAC 5 μM) to all wells • 5. Incubate for 1 hr at 37° C. and 5% CO2 • 6. At the end of the incubation period, spin plates at 300×g for 3 mins and remove supernatant • 7. Then add 50 μl of resazurin (Sigma #R7017) (FAC 100 μM resazurin in RPMI medium without FBS) and incubate plates for a further 1-2 hrs at 37° C. and 5% CO2 • 8. Plates were read in an Envision reader at Ex 560 nm and Em 590 nm • 9. IC50 data is fitted to a non-linear regression equation (log inhibitor vs response-variable slope 4-parameters)

NLRP3, sequence (Q96P20 whole entry): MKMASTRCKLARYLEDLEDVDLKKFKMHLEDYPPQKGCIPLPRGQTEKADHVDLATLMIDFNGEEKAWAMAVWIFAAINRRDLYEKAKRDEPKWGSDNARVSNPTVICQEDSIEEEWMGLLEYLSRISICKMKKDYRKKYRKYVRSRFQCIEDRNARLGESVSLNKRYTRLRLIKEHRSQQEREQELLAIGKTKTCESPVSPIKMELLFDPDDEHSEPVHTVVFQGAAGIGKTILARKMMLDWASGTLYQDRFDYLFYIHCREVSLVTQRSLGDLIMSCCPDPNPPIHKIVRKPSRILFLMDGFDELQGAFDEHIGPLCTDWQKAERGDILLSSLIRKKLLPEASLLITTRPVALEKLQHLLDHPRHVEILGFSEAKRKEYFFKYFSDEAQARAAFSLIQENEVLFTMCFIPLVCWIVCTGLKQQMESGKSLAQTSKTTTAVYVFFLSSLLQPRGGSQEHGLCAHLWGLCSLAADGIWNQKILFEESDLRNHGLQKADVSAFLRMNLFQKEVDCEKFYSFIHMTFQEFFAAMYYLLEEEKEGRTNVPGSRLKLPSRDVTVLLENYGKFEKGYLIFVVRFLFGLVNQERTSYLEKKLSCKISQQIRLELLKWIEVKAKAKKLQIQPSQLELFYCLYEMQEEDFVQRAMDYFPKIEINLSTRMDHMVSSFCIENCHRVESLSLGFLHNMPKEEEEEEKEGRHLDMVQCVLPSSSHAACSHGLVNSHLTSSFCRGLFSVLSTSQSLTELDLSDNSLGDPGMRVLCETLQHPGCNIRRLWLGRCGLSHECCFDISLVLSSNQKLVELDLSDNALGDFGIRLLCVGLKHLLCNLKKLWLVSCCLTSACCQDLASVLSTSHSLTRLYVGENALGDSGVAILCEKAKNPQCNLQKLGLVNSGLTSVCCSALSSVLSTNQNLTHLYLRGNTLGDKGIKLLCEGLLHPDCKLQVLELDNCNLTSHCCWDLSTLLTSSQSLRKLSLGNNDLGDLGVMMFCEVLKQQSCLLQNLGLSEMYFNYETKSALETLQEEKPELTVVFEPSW

Structure (SMILES)	IC50 [nM]
CC(=O)N1CC(n2ccc(S(=O)(=O)NC(=O)Nc3c4c(cc5c3CCC5)CCC4)n2)C1 [Example 3, 1-(1-Acetylazetidin-3-yl)-N-((1,2,3,5,6,7-hexahydro-s-indacen-4-yl)carbamoyl)-1H-pyrazole-3-sulfonamide]	640 to 2560
CN1CCn2nc(S(=O)(=O)NC(=O)Nc3c4c(cc5c3CCC5)CCC4)cc2C1=O [Example 4, N-((1,2,3,5,6,7-Hexahydro-s-indacen-4-yl)carbamoyl)-5-methyl-4-oxo-4,5,6,7-tetrahydropyrazolo[1,5-a]pyrazine-2-sulfonamide]	2560 to 10000
CC(=O)N1CCC(n2ccc(S(=O)(=O)NC(=O)Nc3c4c(cc5c3CCC5)CCC4)n2)CC1 [Example 5, 1-(1-Acetylpiperidin-4-yl)-N-((1,2,3,5,6,7-hexahydro-s-indacen-4-yl)carbamoyl)-1H-pyrazole-3-sulfonamide]	2560 to 10000
CN(C)CCCN(C)C(=O)c1cc(S(=O)(=O)NC(=O)Nc2c3c(cc4c2CCC4)CCC3)nn1C [Example 6, N-(3-(Dimethylamino)propyl)-3-(N-((1,2,3,5,6,7-hexahydro-s-indacen-4-yl)carbamoyl)sulfamoyl)-N,1-dimethyl-1H-pyrazole-5-carboxamide]	2560 to 10000
CC(C)c1cccc(C(C)C)c1NC(=O)NS(=O)(=O)c1cc(C(=O)N(C)C2CCC2)n(C)n1 [Example 8, N-Cyclobutyl-3-(N-((2,6-diisopropylphenyl)carbamoyl)sulfamoyl)-N,1-dimethyl-1H-pyrazole-5-carboxamide]	640 to 2560
CN(CCC#N)C(=O)c1cc(S(=O)(=O)NC(=O)Nc2c3c(cc4c2CCC4)CCC3)nn1C [Example 9, N-(2-Cyanoethyl)-3-(N-((1,2,3,5,6,7-hexahydro-s-indacen-4-yl)carbamoyl)sulfamoyl)-N,1-dimethyl-1H-pyrazole-5-carboxamide]	160 to 640
CN(C)CCN(C)C(=O)c1cc(S(=O)(=O)NC(=O)Nc2c3c(cc4c2CCC4)CCC3)nn1C [Example 10, N-(2-(Dimethylamino)ethyl)-3-(N-((1,2,3,5,6,7-hexahydro-s-indacen-4-yl)carbamoyl)sulfamoyl)-N,1-dimethyl-1H-pyrazole-5-carboxamide]	640 to 2560
CN(C(=O)c1cc(S(=O)(=O)NC(=O)Nc2c3c(cc4c2CCC4)CCC3)nn1C)C1CCCC1 [Example 11, N-Cyclopentyl-3-(N-((1,2,3,5,6,7-hexahydro-s-indacen-4-yl)carbamoyl)sulfamoyl)-N,1-dimethyl-1H-pyrazole-5-carboxamide]	640 to 2560
CC(=O)N(C)CCN(C)C(=O)c1cc(S(=O)(=O)NC(=O)Nc2c3c(cc4c2CCC4)CCC3)nn1C [Example 12, 3-(N-((1,2,3,5,6,7-Hexahydro-s-indacen-4-yl)carbamoyl)sulfamoyl)-N,1-dimethyl-N-(2-(N-methylacetamido)ethyl)-1H-pyrazole-5-carboxamide]	2560 to 10000
CC(=O)NCCN(C)C(=O)c1cc(S(=O)(=O)NC(=O)Nc2c3c(cc4c2CCC4)CCC3)nn1C [Example 13, N-(2-Acetamidoethyl)-3-(N-((1,2,3,5,6,7-hexahydro-s-indacen-4-yl)carbamoyl)sulfamoyl)-N,1-dimethyl-1H-pyrazole-5-carboxamide]	2560 to 10000
CN(C(=O)c1cc(S(=O)(=O)NC(=O)Nc2c3c(cc4c2CCC4)CCC3)nn1C)C1CCOCC1 [Example 14, 3-(N-((1,2,3,5,6,7-Hexahydro-s-indacen-4-yl)carbamoyl)sulfamoyl)-N,1-dimethyl-N-(tetrahydro-2H-pyran-4-yl)-1H-pyrazole-5-carboxamide]	2560 to 10000
CN(C(=O)c1cc(S(=O)(=O)NC(=O)Nc2c3c(cc4c2CCC4)CCC3)nn1C)C1COC1 [Example 17, 3-(N-((1,2,3,5,6,7-Hexahydro-s-indacen-4-yl)carbamoyl)sulfamoyl)-N,1-dimethyl-N-(oxetan-3-yl)-1H-pyrazole-5-carboxamide]	640 to 2560
